Laboratory results published in PubChem BioAssay AID256 (DTP/NCI, 2004).
“And” between values parts separate entries of the source, which are not always exact repeats. Identical values can stand only once. Inconclusive results and toxic doses are left out.

System: CD2F1 mice, L1210 leukemia ip, survival T/C
Experiment: NCI In Vivo Anticancer Drug Screen. Data for tumor model L1210 Leukemia (intraperitoneal) in CD2F1 (CDF1) mice
Conditions: higher = longer survival
Summary of the method: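 Antitumor effect is scored in animals hosting a serially transplanted tumor. Values compare compound-dosed animals against vehicle-only controls as a simple quotient.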

[1] = endpoint: mean survival time, dose: 50.0 mg/kg/injection, schedule: Q04DX003 (ip), vehicle: saline with Tween-80
[2] = endpoint: mean survival time, dose: 100.0 mg/kg/injection, schedule: Q01DX009 (ip), vehicle: saline with Tween-80
[3] = endpoint: mean survival time, dose: 100.0 mg/kg/injection, schedule: Q04DX003 (ip), vehicle: saline with Tween-80

Q: With `CC[C@](O)(C(=O)O)c1cc2n(c(=O)c1CO)Cc1cc3ccccc3nc1-2` as the compound, how does the T/C (endpoint: mean survival time, dose: 1.0 mg/kg/injection, schedule: Q04DX003 (ip), vehicle: water) read?
A: 100 % of control

Q: And the T/C (endpoint: mean survival time, dose: 2.0 mg/kg/injection, schedule: Q04DX003 (ip), vehicle: water)?
A: 107 % of control

Q: What about the T/C (endpoint: mean survival time, dose: 4.0 mg/kg/injection, schedule: Q04DX003 (ip), vehicle: water) of the same compound?
A: 108 % of control

Q: What about the T/C (endpoint: mean survival time, dose: 12.5 mg/kg/injection, schedule: Q04DX003 (ip), vehicle: water) of the same compound?
A: 159 % of control

Q: What about the T/C (endpoint: mean survival time, dose: 16.0 mg/kg/injection, schedule: Q04DX003 (ip), vehicle: water) of the same compound?
A: 175 % of control

Q: What about the T/C (endpoint: mean survival time, dose: 50.0 mg/kg/injection, schedule: Q04DX003 (ip), vehicle: water) of the same compound?
A: 113 % of control and 119 % of control

Q: What about the T/C (endpoint: mean survival time, dose: 100.0 mg/kg/injection, schedule: Q04DX003 (ip), vehicle: water) of the same compound?
A: 93 % of control

Q: What about the T/C (endpoint: median survival time, dose: 3.75 mg/kg/injection, schedule: Q04HX004 (iv), vehicle: water) of the same compound?
A: 115 % of control

Q: What about the T/C (endpoint: median survival time, dose: 5.0 mg/kg/injection, schedule: Q04DX002 (ip), vehicle: water) of the same compound?
A: 117 % of control and 121 % of control and 123 % of control

Q: And the T/C (endpoint: median survival time, dose: 5.0 mg/kg/injection, schedule: Q04DX002 (iv), vehicle: water)?
A: 115 % of control

Q: What about the T/C (endpoint: median survival time, dose: 6.2 mg/kg/injection, schedule: Q04HX004 (iv), vehicle: water) of the same compound?
A: 167 % of control

Q: What about the T/C (endpoint: median survival time, dose: 6.25 mg/kg/injection, schedule: Q04HX004 (iv), vehicle: saline) of the same compound?
A: 177 % of control

Q: And the T/C (endpoint: median survival time, dose: 6.25 mg/kg/injection, schedule: Q04HX004 (iv), vehicle: water)?
A: 162 % of control and 178 % of control

Q: And the T/C (endpoint: median survival time, dose: 7.5 mg/kg/injection, schedule: Q04HX004 (iv), vehicle: other)?
A: 170 % of control

Q: What about the T/C (endpoint: median survival time, dose: 7.5 mg/kg/injection, schedule: Q04HX004 (iv), vehicle: water) of the same compound?
A: 166 % of control and 180 % of control

Q: What about the T/C (endpoint: median survival time, dose: 12.5 mg/kg/injection, schedule: Q04DX003 (ip), vehicle: clinical formulation) of the same compound?
A: 178 % of control

Q: And the T/C (endpoint: median survival time, dose: 12.5 mg/kg/injection, schedule: Q04DX003 (ip), vehicle: saline)?
A: 167 % of control

Q: What about the T/C (endpoint: median survival time, dose: 12.5 mg/kg/injection, schedule: Q04HX004 (iv), vehicle: saline) of the same compound?
A: 160 % of control and 190 % of control

Q: What about the T/C (endpoint: median survival time, dose: 12.5 mg/kg/injection, schedule: Q04HX004 (iv), vehicle: water) of the same compound?
A: 177 % of control and 193 % of control and 196 % of control

Q: What about the T/C (endpoint: median survival time, dose: 15.0 mg/kg/injection, schedule: Q04HX004 (iv), vehicle: dextrose) of the same compound?
A: 195 % of control

Q: And the T/C (endpoint: median survival time, dose: 15.0 mg/kg/injection, schedule: Q04HX004 (iv), vehicle: other)?
A: 192 % of control

Q: What about the T/C (endpoint: median survival time, dose: 15.0 mg/kg/injection, schedule: Q04HX004 (iv), vehicle: water) of the same compound?
A: 200 % of control and 208 % of control

Q: What about the T/C (endpoint: median survival time, dose: 20.0 mg/kg/injection, schedule: Q04DX002 (ip), vehicle: saline) of the same compound?
A: 151 % of control and 168 % of control (2×)

Q: What about the T/C (endpoint: median survival time, dose: 25.0 mg/kg/injection, schedule: Q04DX002 (ip), vehicle: water) of the same compound?
A: 156 % of control and 195 % of control

Q: What about the T/C (endpoint: median survival time, dose: 25.0 mg/kg/injection, schedule: Q04DX003 (ip), vehicle: clinical formulation) of the same compound?
A: 229 % of control

Q: What about the T/C (endpoint: median survival time, dose: 25.0 mg/kg/injection, schedule: Q04DX003 (ip), vehicle: saline) of the same compound?
A: 218 % of control

Q: And the T/C (endpoint: median survival time, dose: 25.0 mg/kg/injection, schedule: Q04HX004 (iv), vehicle: saline)?
A: 198 % of control and 226 % of control

Q: And the T/C (endpoint: median survival time, dose: 25.0 mg/kg/injection, schedule: Q04HX004 (iv), vehicle: water)?
A: 206 % of control and 212 % of control and 230 % of control

Q: What about the T/C (endpoint: median survival time, dose: 30.0 mg/kg/injection, schedule: Q04HX004 (iv), vehicle: dextrose) of the same compound?
A: 227 % of control

Q: What about the T/C (endpoint: median survival time, dose: 30.0 mg/kg/injection, schedule: Q04HX004 (iv), vehicle: other) of the same compound?
A: 219 % of control

Q: What about the T/C (endpoint: median survival time, dose: 30.0 mg/kg/injection, schedule: Q04HX004 (iv), vehicle: water) of the same compound?
A: 220 % of control and 227 % of control

Q: And the T/C (endpoint: median survival time, dose: 40.0 mg/kg/injection, schedule: Q04DX002 (ip), vehicle: saline)?
A: 181 % of control and 185 % of control and 200 % of control

Q: What about the T/C (endpoint: median survival time, dose: 40.0 mg/kg/injection, schedule: Q04DX002 (iv), vehicle: water) of the same compound?
A: 183 % of control

Q: What about the T/C (endpoint: median survival time, dose: 40.0 mg/kg/injection, schedule: Q04HX004 (iv), vehicle: other) of the same compound?
A: 247 % of control

Q: And the T/C (endpoint: median survival time, dose: 40.0 mg/kg/injection, schedule: Q04HX004 (iv), vehicle: water)?
A: 226 % of control and 253 % of control

Q: What about the T/C (endpoint: median survival time, dose: 50.0 mg/kg/injection, schedule: Q04DX002 (ip), vehicle: water) of the same compound?
A: 173 % of control and 217 % of control

Q: And the T/C (endpoint: median survival time, dose: 50.0 mg/kg/injection, schedule: Q04DX003 (ip), vehicle: saline)?
A: 263 % of control

Q: What about the T/C (endpoint: median survival time, dose: 50.0 mg/kg/injection, schedule: Q04HX004 (iv), vehicle: saline) of the same compound?
A: 211 % of control and 256 % of control

Q: And the T/C (endpoint: median survival time, dose: 50.0 mg/kg/injection, schedule: Q04HX004 (iv), vehicle: water)?
A: 225 % of control and 261 % of control and 101 % of control

Q: What about the T/C (endpoint: median survival time, dose: 80.0 mg/kg/injection, schedule: Q04DX002 (ip), vehicle: saline) of the same compound?
A: 205 % of control and 216 % of control and 227 % of control

Q: And the T/C (endpoint: median survival time, dose: 80.0 mg/kg/injection, schedule: Q04DX002 (iv), vehicle: water)?
A: 252 % of control

Q: What about the T/C (endpoint: median survival time, dose: 100.0 mg/kg/injection, schedule: Q04DX002 (ip), vehicle: water) of the same compound?
A: 204 % of control and 233 % of control

Q: And the T/C (endpoint: median survival time, dose: 100.0 mg/kg/injection, schedule: Q04DX003 (ip), vehicle: saline)?
A: 108 % of control

Q: Which results are given for `COc1ccc(CCNCCc2ccc(OC)c(OC)c2)cc1OC`?
A: T/C (endpoint: mean survival time, dose: 12.5 mg/kg/injection, schedule: Q01DX009 (ip), vehicle: water): 95 % of control; T/C (endpoint: mean survival time, dose: 25.0 mg/kg/injection, schedule: Q01DX009 (ip), vehicle: water): 100 % of control; T/C (endpoint: mean survival time, dose: 50.0 mg/kg/injection, schedule: Q01DX009 (ip), vehicle: water): 102 % of control; T/C (endpoint: mean survival time, dose: 100.0 mg/kg/injection, schedule: Q01DX009 (ip), vehicle: water): 104 % of control

Q: For `CNCCOc1ccc(Cl)cc1`, which T/C (endpoint: mean survival time, dose: 25.0 mg/kg/injection, schedule: Q01DX009 (ip), vehicle: saline with Tween-80) is on record?
A: 94 % of control

Q: What about the T/C (endpoint: mean survival time, dose: 25.0 mg/kg/injection, schedule: Q04DX003 (ip), vehicle: saline with Tween-80) of the same compound?
A: 96 % of control

Q: And the T/C (endpoint: mean survival time, dose: 50.0 mg/kg/injection, schedule: Q01DX009 (ip), vehicle: saline with Tween-80)?
A: 96 % of control

Q: And the T/C [1]?
A: 113 % of control

Q: And the T/C [2]?
A: 96 % of control

Q: And the T/C [3]?
A: 96 % of control and 97 % of control

Q: For `CCOC(=O)N/N=C/c1cc(Cl)ccc1O`, which T/C [1] is on record?
A: 98 % of control

Q: And the T/C [3]?
A: 93 % of control

Q: What about the T/C (endpoint: mean survival time, dose: 200.0 mg/kg/injection, schedule: Q04DX003 (ip), vehicle: saline with Tween-80) of the same compound?
A: 91 % of control

Q: For `CC(=O)C(C(C)=O)C1C=CCC1` (centres undefined), which T/C [2] is on record?
A: 107 % of control

Q: What about the T/C (endpoint: mean survival time, dose: 200.0 mg/kg/injection, schedule: Q01DX009 (ip), vehicle: saline with Tween-80) of the same compound?
A: 104 % of control

Q: What about the T/C (endpoint: mean survival time, dose: 400.0 mg/kg/injection, schedule: Q01DX009 (ip), vehicle: saline with Tween-80) of the same compound?
A: 101 % of control
